For five molecules, inhibition results are on record in US8404736B2, “Heterocyclic amide derivatives as EP4 receptor antagonists” (Beta Pharma Canada Inc., priority 2008, dated 2013).

This assay concerns the target T1, EP4 receptor (Homo sapiens, UniProt P35408).
T1 construct: host or cells: HEK 293(ebna) according to the general protocol; cells used by the contract laboratory not given
Put plainly: EP4 receptor binding assay (inhibition of [3H]PGE2 binding, MSD Pharma Service). The following applies: 1 nM [3H] PGE2, Human recombinant Chem-1 cells; for inhibition at 0.002 µM: Tested Concentration 2 nM; for inhibition at 0.01 µM: Tested Concentration 10 nM. As for the experimental part: Transfected HEK 293(ebna) cells are maintained in culture, harvested and membranes are prepared by differential centrifugation, following lysis of the cells in the presence of protease inhibitors, for use in receptor binding assays. Prostanoid receptor binding assays (for DP1, DP2 (CRTH2), EP1, EP2, EP3-III, EP4, FP, IP, and TP) are performed in 10 mM MES/KOH (pH 6.0) (EPs, FP and TP) or 10 mM HEPES/KOH (pH 7.4) (DPs and IP), containing 1 mM EDTA, 2.5-30 mM divalent cation and the appropriate radioligand. Synthetic compounds are added in dimethylsulfoxide which is kept constant at 1% (v/v) in all incubations. The reaction is initiated by addition of membrane protein. Non-specific binding is determined in the presence of 10 μM of the corresponding non-radioactive prostanoid. Incubations are conducted for 60-90 min at room temperature or 30° C. and terminated by rapid filtration. Specific binding is calculated by subtracting non specific binding from total binding. The residual specific binding at each ligand concentration is calculated and expressed as a function of ligand concentration in order to construct sigmoidal concentration-response curves. The binding affinity of the compounds is determined by calculating the equilibrium inhibition constant (Ki) from the equation Ki=InPt/1[radioligand]/Kd where Kd is the equilibrium dissociation constant for the radioligand:receptor interaction and InPt is the inflection point of the dose-response curves.
EP4 receptor binding assays were performed at MSD Pharma Service in Taiwan under the following assay conditions: […]

T1 sequence (P35408 whole entry): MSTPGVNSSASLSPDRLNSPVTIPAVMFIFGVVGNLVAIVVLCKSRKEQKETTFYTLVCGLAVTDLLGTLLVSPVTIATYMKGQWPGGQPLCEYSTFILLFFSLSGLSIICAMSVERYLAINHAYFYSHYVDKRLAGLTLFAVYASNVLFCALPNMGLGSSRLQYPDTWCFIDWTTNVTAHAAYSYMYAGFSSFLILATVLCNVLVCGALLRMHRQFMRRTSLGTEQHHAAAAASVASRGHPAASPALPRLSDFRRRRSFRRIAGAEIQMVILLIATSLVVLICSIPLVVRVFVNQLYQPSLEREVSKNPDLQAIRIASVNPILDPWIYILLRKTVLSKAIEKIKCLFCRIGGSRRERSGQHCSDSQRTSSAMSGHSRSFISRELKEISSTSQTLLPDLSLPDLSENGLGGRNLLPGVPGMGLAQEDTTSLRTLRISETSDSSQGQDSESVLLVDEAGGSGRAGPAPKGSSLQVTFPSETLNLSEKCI

Broadly, the inhibition is the percentage by which the read-out fell short of the control. In the case of `O=C(O)c1ccc(C2(NC(=O)c3csc4ccn(Cc5ccc(C(F)(F)F)cc5)c34)CC2)cc1`, the inhibition at 0.002 µM is 88%.

Regarding `Cc1sc2ccn(Cc3ccc(C(F)(F)F)cc3)c2c1C(=O)NC1(c2ccc(C(=O)O)cc2)CC1`, the inhibition at 0.002 µM came out at 93%.

Take `Cc1sc2ccn(Cc3ccc(C(F)(F)F)cc3)c2c1C(=O)NC(C)c1ccc(C(=O)O)cc1` (centres unmarked): the inhibition at 0.01 µM turned out to be 85%.

With `CC(NC(=O)c1csc2ccn(Cc3ccc(C(F)(F)F)cc3)c12)c1ccc(C(=O)O)cc1` (centres unmarked), the inhibition at 0.01 µM was 87%.

Turning to `O=C(O)c1ccc(C2(NC(=O)c3cccc4c3N(Cc3ccc(C(F)(F)F)cc3)C(=O)C4)CC2)cc1`, the inhibition at 0.01 µM is 83%.
